Test results: patent US20220169632A1, “METHODS AND MATERIALS FOR INCREASING OR MAINTAINING NICOTINAMIDE MONONUCLEOTIDE ADENYLYL TRANSFERASE-2 (NMNAT2) POLYPEPTIDE LEVELS” (University of Pittsburgh - Of the Commonwealth System of …, priority 2019, published 2022)

Key:
[1] = test system: NMNAT2; assay: NMNAT2-Hibit nano-luciferase activity in transfected U87MG cells, 25 μM, 24 hours; format: cell-based; details: NMNAT2-Hibit luc plasmid; for B: compound efficacy (IC50) for NMNAT2 activation; increase in NMNAT2 luciferase activity: 24 hours (Table B); for C: Compound efficacy for NMNAT2 activation; increase in NMNAT2 luciferase activity: 24 hours (Table C)
Experimental: Selected compounds were tested in vitro. Briefly, U87MG cells were transfected with NMNAT2-Hibit luc plasmid. Cells were treated with a test compound at 25 μM for 24 hours. Cells were then collected and assayed for nano-luciferase activity.

[2] = test system: NMNAT2; assay: NMNAT2-Hibit nano-luciferase activity in stably transfected U87MG cells, various concentrations, 24 hours; format: cell-based; details: U87MG cells stably transfected with NMNAT2-Hibit luc plasmid
Experimental: Selected compounds were tested in vitro. U87MG cells were stably transfected with NMNAT2-Hibit luc plasmid. Cells were treated with a test compound at various concentrations for 24 hours. Cells were then collected and assayed for nano-luciferase activity.

How did the “B: compound efficacy (IC50) for NMNAT2 activation; increase in NMNAT2 luciferase activity” value [1] turn out when `O=C(NCc1noc2ccccc12)Nc1cccc(Cl)c1` [Compound 181001] was run?
Its value is “+ (“+” <20% increase in NMNAT2 luciferase activity.)”.

Which “C: Compound efficacy for NMNAT2 activation; increase in NMNAT2 luciferase activity” value [1] does the source give for `Cc1cc(C)n(CC(=O)NCc2ccc(Cl)cc2)c(=O)c1C#N` [Compound 181122] here?
The value was “+ (“+” <20% increase in NMNAT2 luciferase activity.)”.

How did the “B: compound efficacy (IC50) for NMNAT2 activation; increase in NMNAT2 luciferase activity” value [1] turn out when `CN(C(=O)NCc1noc2ccccc12)c1cccc(Cl)c1` [Compound 181013] was run?
Its value is “+ (“+” <20% increase in NMNAT2 luciferase activity.)”.

For `O=C(CN1C(=O)c2cccc3cccc1c23)NCc1ccco1` [Compound 181104], which “C: Compound efficacy for NMNAT2 activation; increase in NMNAT2 luciferase activity” value [1] is on record?
Its value is “+ (“+” <20% increase in NMNAT2 luciferase activity.)”.

How did the “C: Compound efficacy for NMNAT2 activation; increase in NMNAT2 luciferase activity” value [1] turn out when `COc1ccccc1CNC(=O)Cn1ccc2ccc(F)cc21` [Compound 181151] was run?
Its value is “+ (“+” <20% increase in NMNAT2 luciferase activity.)”.

For `O=C(Cn1cc(C(=O)C(F)(F)F)c2cc(Br)ccc21)NCc1ccco1` [Compound 181103], which “C: Compound efficacy for NMNAT2 activation; increase in NMNAT2 luciferase activity” value [1] is on record?
Its value is “+ (“+” <20% increase in NMNAT2 luciferase activity.)”.

Which “C: Compound efficacy for NMNAT2 activation; increase in NMNAT2 luciferase activity” value [1] does the source give for `Cc1cc(C)n(CC(=O)NCc2ccco2)c(=O)c1C#N` [Compound 181128] here?
The value was “+ (“+” <20% increase in NMNAT2 luciferase activity.)”.

For `Cc1cc(C)n(CC(=O)NCc2ccc(F)cc2)c(=O)c1C#N` [Compound 181123], which “C: Compound efficacy for NMNAT2 activation; increase in NMNAT2 luciferase activity” value [1] is on record?
Its value is “+ (“+” <20% increase in NMNAT2 luciferase activity.)”.

`Cc1ccccc1N(C)C(=O)NCc1noc2ccccc12` [Compound 181012] was tested. Which “B: compound efficacy (IC50) for NMNAT2 activation; increase in NMNAT2 luciferase activity” value [1] did it give?
The value was “+ (“+” <20% increase in NMNAT2 luciferase activity.)”.

With `COc1ccc(CNC(=O)Cn2ccc3ccc(F)cc32)cc1OC` [Compound 181150] as the compound, how does the “C: Compound efficacy for NMNAT2 activation; increase in NMNAT2 luciferase activity” value [1] read?
The value was “+ (“+” <20% increase in NMNAT2 luciferase activity.)”.

For `Cc1cc(C)n(CC(=O)NCc2ccccc2Cl)c(=O)c1C#N` [Compound 181130], which “C: Compound efficacy for NMNAT2 activation; increase in NMNAT2 luciferase activity” value [1] is on record?
The value was “+ (“+” <20% increase in NMNAT2 luciferase activity.)”.

For `O=C(Cn1cc(C(=O)C2CCCCC2)c2ccccc21)NCc1ccco1` [Compound 181107], which “C: Compound efficacy for NMNAT2 activation; increase in NMNAT2 luciferase activity” value [1] is on record?
Its value is “+++ (“+++” >100% increase in NMNAT2 luciferase activity.)”.

Which “B: compound efficacy (IC50) for NMNAT2 activation; increase in NMNAT2 luciferase activity” value [1] does the source give for `COCCCNC(=O)NCc1noc2ccc(C)cc12` [Compound 181048] here?
The value was “++ (“++” >20% and <100% increase in NMNAT2 luciferase activity.)”.

How did the “B: compound efficacy (IC50) for NMNAT2 activation; increase in NMNAT2 luciferase activity” value [1] turn out when `Cc1ccc2onc(CNC(=O)Nc3cccc(C#N)c3)c2c1` [Compound 181066] was run?
Its value is “+ (“+” <20% increase in NMNAT2 luciferase activity.)”.

How did the “B: compound efficacy (IC50) for NMNAT2 activation; increase in NMNAT2 luciferase activity” value [1] turn out when `Cc1ccc2onc(CNC(=O)NCCN(C)Cc3ccccc3)c2c1` [Compound 181073] was run?
Its value is “+ (“+” <20% increase in NMNAT2 luciferase activity.)”.

`Cc1ccc2onc(CNC(=O)NC3CCCC3)c2c1` [Compound 181071] was tested. Which “B: compound efficacy (IC50) for NMNAT2 activation; increase in NMNAT2 luciferase activity” value [1] did it give?
The value was “+ (“+” <20% increase in NMNAT2 luciferase activity.)”.

With `Cc1ccc2onc(CNC(=O)NCc3cccc(Cl)c3)c2c1` [Compound 181077] as the compound, how does the “B: compound efficacy (IC50) for NMNAT2 activation; increase in NMNAT2 luciferase activity” value [1] read?
Its value is “++ (“++” >20% and <100% increase in NMNAT2 luciferase activity.)”.

Which “B: compound efficacy (IC50) for NMNAT2 activation; increase in NMNAT2 luciferase activity” value [1] does the source give for `CCN(C(=O)NCc1noc2ccc(C)cc12)c1cccc(Cl)c1` [Compound 181054] here?
Its value is “+ (“+” <20% increase in NMNAT2 luciferase activity.)”.

`CC(C)c1ccc(NC(=O)NCc2noc3ccccc23)cc1` [Compound 181010] was tested. Which “B: compound efficacy (IC50) for NMNAT2 activation; increase in NMNAT2 luciferase activity” value [1] did it give?
Its value is “+ (“+” <20% increase in NMNAT2 luciferase activity.)”.

How did the “B: compound efficacy (IC50) for NMNAT2 activation; increase in NMNAT2 luciferase activity” value [1] turn out when `Cc1cccc(N(C)C(=O)NCc2noc3ccccc23)c1` [Compound 181018] was run?
The value was “+ (“+” <20% increase in NMNAT2 luciferase activity.)”.

With `Cc1ccc(CNC(=O)c2ccc(NC(=O)Cn3c(C)cc(C)c(C#N)c3=O)cc2)o1` [Compound 181134] as the compound, how does the “C: Compound efficacy for NMNAT2 activation; increase in NMNAT2 luciferase activity” value [1] read?
Its value is “+ (“+” <20% increase in NMNAT2 luciferase activity.)”.

For `CCn1cc(CCC(=O)NCc2ccco2)c2ccccc21` [Compound 181115], which “C: Compound efficacy for NMNAT2 activation; increase in NMNAT2 luciferase activity” value [1] is on record?
Its value is “+ (“+” <20% increase in NMNAT2 luciferase activity.)”.

Which “E: compound efficacy for NMNAT2 activation (concentration giving >25% increase in NMNAT2 luciferase activity)” value [2] does the source give for `Cc1ccc(C)c(Cn2c(C(F)F)c(CCC(=O)NCc3ccco3)c3ccccc32)c1` [BC20354] here?
The value was “+ (“+” >25% increase in NMNAT2 luciferase activity at >25 μM.)”.

With `Cc1ccc(C)c(Cn2c(C(F)F)c(CCC(=O)NCc3cccnc3)c3ccccc32)c1` [BC20403] as the compound, how does the “E: compound efficacy for NMNAT2 activation (concentration giving >25% increase in NMNAT2 luciferase activity)” value [2] read?
Its value is “+ (“+” >25% increase in NMNAT2 luciferase activity at >25 μM.)”.

Which “E: compound efficacy for NMNAT2 activation (concentration giving >25% increase in NMNAT2 luciferase activity)” value [2] does the source give for `Cc1ccccc1CNC(=O)Cn1c2c(c3ccccc31)CC(C(=O)NCc1ccco1)CC2` (stereo not shown) [BC20287] here?
Its value is “++ (“++” >25% increase in NMNAT2 luciferase activity at >1 μM ≤25 μM.)”.

For `CCCCN(CC)Cc1ccc(CNC(=O)C2CCc3c(c4ccccc4n3Cc3cc(C)ccc3C)C2)o1` (stereo not shown) [BC20219], which “E: compound efficacy for NMNAT2 activation (concentration giving >25% increase in NMNAT2 luciferase activity)” value [2] is on record?
Its value is “++ (“++” >25% increase in NMNAT2 luciferase activity at >1 μM ≤25 μM.)”.

Which “E: compound efficacy for NMNAT2 activation (concentration giving >25% increase in NMNAT2 luciferase activity)” value [2] does the source give for `CC(Cc1ccco1)NC(=O)C1CCCc2c1c1ccccc1n2Cc1cccc(F)c1` (stereo not shown) [BC20377] here?
Its value is “+ (“+” >25% increase in NMNAT2 luciferase activity at >25 μM.)”.

Which “E: compound efficacy for NMNAT2 activation (concentration giving >25% increase in NMNAT2 luciferase activity)” value [2] does the source give for `Cc1ccccc1Cn1c(C)c(C)c2cc(C(=O)NCc3cccnc3)ccc21` [BC20208] here?
The value was “++ (“++” >25% increase in NMNAT2 luciferase activity at >1 μM ≤25 μM.)”.

For `Cc1c(C)n(Cc2cccc(F)c2)c2ccc(C(=O)NCc3ccncc3)cc12` [BC20119], which “E: compound efficacy for NMNAT2 activation (concentration giving >25% increase in NMNAT2 luciferase activity)” value [2] is on record?
The value was “+++ (“+++” >25% increase in NMNAT2 luciferase activity at ≤1 μM.)”.

For `Cc1ccc(C)c(Cn2cc3c4c(cccc42)C(=O)N(Cc2ccccc2F)CC3)c1` [BC20269], which “E: compound efficacy for NMNAT2 activation (concentration giving >25% increase in NMNAT2 luciferase activity)” value [2] is on record?
The value was “+ (“+” >25% increase in NMNAT2 luciferase activity at >25 μM.)”.

For `O=C(c1ccco1)N1CCN(C(=O)C2CCCc3c2c2ccccc2n3Cc2cccc(F)c2)CC1` (stereo not shown) [BC20376], which “E: compound efficacy for NMNAT2 activation (concentration giving >25% increase in NMNAT2 luciferase activity)” value [2] is on record?
Its value is “+ (“+” >25% increase in NMNAT2 luciferase activity at >25 μM.)”.

For `Cc1ccc(C)c(Cn2c3c(c4ccccc42)CC(C(=O)NCc2cccnc2)CC3)c1` (stereo not shown) [BC20189], which “E: compound efficacy for NMNAT2 activation (concentration giving >25% increase in NMNAT2 luciferase activity)” value [2] is on record?
The value was “++ (“++” >25% increase in NMNAT2 luciferase activity at >1 μM ≤25 μM.)”.

`O=C1CC(c2cn(Cc3cccc(F)c3)c3ccccc23)CCN1Cc1ccncc1` (stereo not shown) [BC20322] was tested. Which “E: compound efficacy for NMNAT2 activation (concentration giving >25% increase in NMNAT2 luciferase activity)” value [2] did it give?
Its value is “++ (“++” >25% increase in NMNAT2 luciferase activity at >1 μM ≤25 μM.)”.

How did the “E: compound efficacy for NMNAT2 activation (concentration giving >25% increase in NMNAT2 luciferase activity)” value [2] turn out when `Cc1ccccc1Cn1c(C)c(C)c2cc(C(=O)NC(C)Cc3ccco3)ccc21` (stereo not shown) [BC20207] was run?
Its value is “+ (“+” >25% increase in NMNAT2 luciferase activity at >25 μM.)”.

For `Cc1cccc(Cn2cc(CCCC(=O)NCc3ccccc3F)c3ccccc32)c1` [BC20165], which “E: compound efficacy for NMNAT2 activation (concentration giving >25% increase in NMNAT2 luciferase activity)” value [2] is on record?
The value was “+++ (“+++” >25% increase in NMNAT2 luciferase activity at ≤1 μM.)”.

`Cc1ccccc1Cn1c(C)c(C)c2cc(C(=O)NCCc3ccccc3)ccc21` [BC20251] was tested. Which “E: compound efficacy for NMNAT2 activation (concentration giving >25% increase in NMNAT2 luciferase activity)” value [2] did it give?
The value was “++ (“++” >25% increase in NMNAT2 luciferase activity at >1 μM ≤25 μM.)”.

How did the “E: compound efficacy for NMNAT2 activation (concentration giving >25% increase in NMNAT2 luciferase activity)” value [2] turn out when `Cc1ccccc1CNC(=O)C1CCc2c(c3ccccc3n2Cc2cccc(F)c2)C1` (stereo not shown) [BC20223] was run?
The value was “+ (“+” >25% increase in NMNAT2 luciferase activity at >25 μM.)”.
